Test results published in patent US12414567B2, “Wear resistant antimicrobial compositions and methods of use” (ECOLAB USA INC., priority 2010, dated 2025).

System: MatTek EpiOcular ocular tissues
Experiment: MatTek EpiOcular model ocular irritation (MTT cell viability, Example 16)
Type: cell-based
Details: positive control, 10%, all exposure times (5-60 minutes)
Experimental: Each of these compositions was diluted at a rate of 2 oz/gal before they were tested using the Epioccular model.
The MatTek EpiOcular™ model can be used to assess the potential ocular irritation of test articles by determining the cell viability of the tissue after exposure to the test articles. The objective of this study was to assess the ocular irritation potential of 1.56% (w/w) 12837.36.1. Control and test article exposure times were 5 minutes, 10 minutes, 20 minutes, 40 minutes and 60 minutes. After the exposures MTT was performed and data was normalized to the negative control, sterile ultrapure water (water purified and deionized˜18.2 MΩ-cm). The positive control, 10% benzalkonium chloride (BC), was effective, reducing cell viability to <10% of control for all exposure times (Tables 2a-e) and FIG. 1). The relative cell viability of ocular tissues treated with 1.56% (w/w) 12837.36.1 was 29.7%, 26.8%, 15.3%, 8.9% and 8.0% after 5, 10, 20, 40 and 60 minute exposures, respectively (Tables 2a-e and FIG. 1), resulting in an ET50 of 1.54 minutes and an estimated in vivo Draize score of 77.2 (Table 1).
The MatTek EipOcular™ model can be used to assess the potential ocular irritation of test articles by determining the cell viability of the tissue after exposure to the test articles. The objective of this study was to assess the ocular irritation potential of 1.56% (w/w) 12837.39.1. […]

Substance: benzalkonium chloride
- cell viability: < 10 % of control
